Test results published in the supplement of paper PMC4862054.

How the values were obtained:
Experiment in all cases: normalised response (% of control), CellTox Green; higher = less cell death (100 = DMSO, 0 = benzethonium chloride kill control)
Conditions in all cases: incubation time: 72 h
HCC1937 = test system: HCC1937
Method in brief: (§1)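 After 72 h with compound in 384-well plates, breast cancer cell lines seeded as 20 µl suspension were read for CellTox Green fluorescence at 485/520 nm. CellTiter-Glo luminescence was then read after 10 min at room temperature. Compound was present at 5 concentrations in 10-fold steps over a 10,000-fold range set per compound, and plates were normalised to 0.1 % DMSO (100) and a positive kill control (0). Values are normalised signals, each at a single concentration.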

MDA-MB-231 = test system: MDA-MB-231
Method in brief: as §1

MDA-MB-436 = test system: MDA-MB-436
Method in brief: as §1

HCC1143 = test system: HCC1143
Method in brief: as §1

Hs578T = test system: Hs578T
Method in brief: as §1

MFM-223 = test system: MFM-223
Method in brief: as §1

MDA-MB-468 = test system: MDA-MB-468
Method in brief: as §1

MCF-10A = test system: MCF-10A
Method in brief: as §1

HDQ-P1 = test system: HDQ-P1
Method in brief: as §1

| SMILES | normalised response (HCC1937) [%] | normalised response (MDA-MB-231) [%] | normalised response (MDA-MB-436) [%] | normalised response (HCC1143) [%] | normalised response (Hs578T) [%] | normalised response (MFM-223) [%] | normalised response (MDA-MB-468) [%] | normalised response (MCF-10A) [%] | normalised response (HDQ-P1) [%] |
| --- | --- | --- | --- | --- | --- | --- | --- | --- | --- |
| COc1ncc(-c2ccc3nccc(-c4ccnnc4)c3c2)cc1NS(=O)(=O)c1ccc(F)cc1F (100 nM) | 90.5 | 91.2 | 93.5 | 110 | 85.2 | 76.5 | 89.5 | 97.7 | 86 |
| COc1ncc(-c2ccc3nccc(-c4ccnnc4)c3c2)cc1NS(=O)(=O)c1ccc(F)cc1F (1000 nM) | 7.68 | 64.3 | 104 | 107 | 35.8 | 78.7 | -111 | 73.1 | 78.8 |
| C[C@@]1(C(=O)Nc2ccc(F)nc2)CCCN1c1nc(Nc2cc(C3CC3)n[nH]2)c2cccn2n1 (1000 nM) | 93.8 | 76.2 | 90.8 | 68.5 | 110 | 76.7 | 52.5 | 80.4 | 82.1 |
| C[C@@]1(C(=O)Nc2ccc(F)nc2)CCCN1c1nc(Nc2cc(C3CC3)n[nH]2)c2cccn2n1 (10000 nM) | 104 | 49.8 | 90.4 | -57.9 | 82.1 | 71.2 | 49.8 | 25.8 | 34.9 |
| COc1c(C)cnc(Cn2cnc3c(Cl)nc(N)nc32)c1C [BIIB021] (1000 nM) | 108 | 71.8 | 80.9 | 90.5 | 63.4 | 99.3 | 135 | 1.93 | 90.4 |
| COc1c(C)cnc(Cn2cnc3c(Cl)nc(N)nc32)c1C [BIIB021] (10000 nM) | 107 | 48.7 | 106 | 126 | 89.7 | 93.4 | 96.8 | 52.8 | 40.1 |
| CC(C)C[C@H](NC(=O)[C@H](Cc1ccccc1)NC(=O)c1cnccn1)B(O)O [Bortezomib] (100 nM) | -5.94 | -41.1 | 28.8 | 83.5 | 15.4 | 39.2 | -55.4 | 74 | 9.79 |
| CC(C)C[C@H](NC(=O)[C@H](Cc1ccccc1)NC(=O)c1cnccn1)B(O)O [Bortezomib] (1000 nM) | 25.3 | -42.8 | 6.1 | 27.3 | 39.2 | 53.7 | -84 | 15.3 | 9.5 |
| CS(=O)(=O)OCCCCOS(C)(=O)=O [Busulfan] (10000 nM) | 106 | 108 | 74 | 121 | 94.5 | 97.1 | 96.5 | 104 | 95.2 |
| CS(=O)(=O)OCCCCOS(C)(=O)=O [Busulfan] (100000 nM) | 105 | 99.8 | 95.6 | 94.9 | 123 | 84.1 | – | 95.5 | – |
| C#Cc1cccc(Nc2ncnc3cc(OC)c(OCCCCCCC(=O)NO)cc23)c1 [CUDC-101] (1000 nM) | 113 | 49.2 | 72.7 | 85.1 | 98.8 | 85 | 35.1 | 100 | 101 |
| C#Cc1cccc(Nc2ncnc3cc(OC)c(OCCCCCCC(=O)NO)cc23)c1 [CUDC-101] (10000 nM) | 97.7 | 25.8 | 57.5 | 91.9 | 29.1 | 36.9 | -22.4 | 48.6 | 84.6 |
| COc1cccc2c1C(=O)c1c(O)c3c(c(O)c1C2=O)C[C@@](O)(C(C)=O)C[C@@H]3O[C@H]1C[C@H](N)[C@H](O)[C@H](C)O1 [Daunorubicin] (100 nM) | – | 104 | 98.2 | 75.9 | 90.7 | 99.6 | 96.9 | 106 | – |
| COc1cccc2c1C(=O)c1c(O)c3c(c(O)c1C2=O)C[C@@](O)(C(C)=O)C[C@@H]3O[C@H]1C[C@H](N)[C@H](O)[C@H](C)O1 [Daunorubicin] (1000 nM) | 137 | 127 | 47.9 | 100 | 144 | 101 | 322 | 106 | 101 |
| CN1CCN(c2ccc3nc(-c4c(N)c5c(F)cccc5[nH]c4=O)[nH]c3c2)CC1 [Dovitinib] (1000 nM) | 128 | 88.5 | 95.8 | 104 | 80.1 | 102 | 167 | 104 | 106 |
| CN1CCN(c2ccc3nc(-c4c(N)c5c(F)cccc5[nH]c4=O)[nH]c3c2)CC1 [Dovitinib] (10000 nM) | 97.9 | – | 108 | 111 | – | 99.1 | 126 | 99.3 | 108 |
| O=c1[nH]c(=O)n([C@H]2C[C@H](O)[C@@H](CO)O2)cc1F [Floxuridine] (1000 nM) | 126 | 86 | 108 | 122 | 98.3 | 102 | 125 | 116 | 98 |
| O=c1[nH]c(=O)n([C@H]2C[C@H](O)[C@@H](CO)O2)cc1F [Floxuridine] (10000 nM) | 114 | 108 | 99.9 | 103 | 93.2 | – | 119 | 113 | 66.2 |
| O=c1[nH]cc(F)c(=O)[nH]1 [Fluorouracil] (1000 nM) | 94.5 | 106 | 101 | 110 | 60.9 | 102 | 96.7 | 111 | 107 |
| O=c1[nH]cc(F)c(=O)[nH]1 [Fluorouracil] (10000 nM) | 104 | 105 | 75.7 | 103 | 118 | 103 | -57.8 | 75.7 | – |

| SMILES | normalised response (HCC1937) [%] | normalised response (MDA-MB-231) [%] | normalised response (MDA-MB-436) [%] | normalised response (HCC1143) [%] | normalised response (Hs578T) [%] | normalised response (MFM-223) [%] | normalised response (MDA-MB-468) [%] | normalised response (MCF-10A) [%] | normalised response (HDQ-P1) [%] |
| --- | --- | --- | --- | --- | --- | --- | --- | --- | --- |
| C[C@@H]1C=C2C(=O)O[C@@H]3CC[C@H](C1)[C@]23O [Galiellalactone] (5000 nM) | 115 | 107 | 96.5 | 105 | 112 | 101 | – | 82.2 | 98.5 |
| C[C@@H]1C=C2C(=O)O[C@@H]3CC[C@H](C1)[C@]23O [Galiellalactone] (50000 nM) | 81.2 | 121 | 105 | 112 | 122 | 106 | 135 | 102 | 92.3 |
| COC1=C2C[C@@H](C)C[C@H](OC)[C@H](O)[C@@H](C)/C=C(\C)[C@H](OC(N)=O)[C@@H](OC)/C=C\C=C(/C)C(=O)NC(=CC1=O)C2=O [Geldanamycin] (1000 nM) | 105 | 107 | 92.2 | 102 | 91.1 | 90.7 | – | 96.8 | 102 |
| COC1=C2C[C@@H](C)C[C@H](OC)[C@H](O)[C@@H](C)/C=C(\C)[C@H](OC(N)=O)[C@@H](OC)/C=C\C=C(/C)C(=O)NC(=CC1=O)C2=O [Geldanamycin] (10000 nM) | -41.7 | 6.32 | 80.8 | 99.5 | 98 | 44.1 | -27.4 | -24.5 | 65.2 |
| CS(=O)(=O)CCNCc1ccc(-c2ccc3ncnc(Nc4ccc(OCc5cccc(F)c5)c(Cl)c4)c3c2)o1 [Lapatinib] (1000 nM) | – | – | 98.7 | 99 | – | 104 | 84.8 | 26.9 | 96.8 |
| Cn1cnc2c(F)c(Nc3ccc(Br)cc3F)c(C(=O)NOCCO)cc21 [MEK-162] (100 nM) | 60.2 | 50.2 | 105 | 115 | 76.4 | 91.5 | 139 | 104 | 87.6 |
| Cn1cnc2c(F)c(Nc3ccc(Br)cc3F)c(C(=O)NOCCO)cc21 [MEK-162] (1000 nM) | 54.6 | 39.1 | 79.9 | 94.5 | 121 | – | 120 | 106 | 67.1 |
| CCOc1cc2ncc(C#N)c(Nc3ccc(OCc4ccccn4)c(Cl)c3)c2cc1NC(=O)/C=C/CN(C)C [Neratinib] (100 nM) | 96 | 109 | 97.8 | 115 | 90.3 | 103 | 75.7 | 114 | 99.5 |
| CCOc1cc2ncc(C#N)c(Nc3ccc(OCc4ccccn4)c(Cl)c3)c2cc1NC(=O)/C=C/CN(C)C [Neratinib] (1000 nM) | 95.7 | 6.81 | 104 | 105 | 120 | 100 | -68.6 | 115 | 55.7 |
| COc1ccc(C2=N[C@@H](c3ccc(Cl)cc3)[C@@H](c3ccc(Cl)cc3)N2C(=O)N2CCNC(=O)C2)c(OC(C)C)c1 [Nutlin-3] (1000 nM) | 115 | 104 | 92.7 | 94.2 | 61.6 | 100 | 108 | 84 | 112 |
| COc1ccc(C2=N[C@@H](c3ccc(Cl)cc3)[C@@H](c3ccc(Cl)cc3)N2C(=O)N2CCNC(=O)C2)c(OC(C)C)c1 [Nutlin-3] (10000 nM) | – | 108 | 95 | 105 | 115 | 96.4 | 107 | 101 | 103 |
| COC1=CC(c2cc3ccccc3[nH]2)=N/C1=C\c1[nH]c(C)cc1C [Obatoclax] (1000 nM) | -5.92 | 64.3 | 91.5 | 105 | 107 | 102 | 107 | 70.1 | – |
| CC(C)(C)c1cc(NC(=O)Nc2ccc(-c3cn4c(n3)sc3cc(OCCN5CCOCC5)ccc34)cc2)no1 [Quizartinib] (100 nM) | – | 116 | 66.7 | 98.3 | 113 | 102 | 139 | 84.8 | 103 |
| CC(C)(C)c1cc(NC(=O)Nc2ccc(-c3cn4c(n3)sc3cc(OCCN5CCOCC5)ccc34)cc2)no1 [Quizartinib] (1000 nM) | 96 | 124 | 71.8 | 132 | – | 59.1 | 174 | 93.3 | 90.1 |
| O=C(c1ccc(OCCN2CCCCC2)cc1)c1c(-c2ccc(O)cc2)sc2cc(O)ccc12 [Raloxifene] (1000 nM) | 119 | 103 | 107 | 119 | 105 | – | 120 | 104 | 105 |
| O=C(c1ccc(OCCN2CCCCC2)cc1)c1c(-c2ccc(O)cc2)sc2cc(O)ccc12 [Raloxifene] (10000 nM) | 82.8 | 62.7 | 104 | 118 | – | 102 | 82.7 | 82.2 | 50.4 |
| Cn1c(=O)c(F)c(Nc2ccc(I)cc2F)c2c(=O)n(C[C@@H](O)CO)cnc21 [TAK-733] (100 nM) | 108 | 71.3 | 104 | 124 | – | 74.9 | 127 | 79.7 | 97.3 |
| CCS(=O)(=O)c1cccc(-c2cc(C(=O)NC3CCN(C)CC3)c(C)c3[nH]c4ncc(C)cc4c23)c1 [TAK-901] (100 nM) | 91.5 | 92.3 | 96.8 | 118 | 76.4 | 94 | -31.9 | 107 | – |
| CCCC(CCC)C(=O)O [Valproic acid] (10000 nM) | 76 | – | 117 | 94.8 | 100 | 101 | 86.2 | 107 | – |
